Experimental data from article PMC10418599, “Quercetins, Chlorogenic Acids and Their Colon Metabolites Inhibit Colon Cancer Cell Proliferation at Physiologically Relevant Concentrations” (International Journal of Molecular Sciences, 2023).

Test system: SW480 cell line
Assay: Cell metabolism of phenolic compounds (UHPLC-HR-MS analysis of cell media)
Assay type: in vitro ADME, Human
Protocol: To analyze the metabolism of phenolic compounds by Caco-2 and SW480 cells, the cell culture media were withdrawn after 0, 24, 48 and 72 h of incubation. Phenolic compounds were extracted from the culture media by following the procedure reported in Sala et al.. Briefly, 100 μL of cold methanol was mixed with 100 μL of cell media and vortexed for 1 min. The mixture was then centrifuged at 10,000× g (4 °C, 5 min) and the supernatant was injected, after appropriate dilution, in an ultra-high-performance liquid chromatography high-resolution mass spectrometry system (UHPLC-HR-MS).
The HR-MS system consisted of a UHPLC Ultimate 3000 separation module, equipped with a C18 column (Acquity UPLC HSS C18 reversed phase, 2.1 × 100 mm, 1.8 μm particle size, Waters, Milan, Italy) and coupled with a Q Exactive Hybrid Quadrupole-Orbitrap Mass Spectrometer (Thermo Scientific, San Jose, CA, USA). Mobile phases consisted of a mixture of water containing formic acid (0.1%) (mobile phase A) and acetonitrile containing formic acid (0.1%) (mobile phase B). The gradient began at 1% B, reaching 40% B over 20 min. To wash the column, the mobile phase B concentration was raised to 99% over 6 min and kept at 99% for 3 min before returning to the initial conditions. The MS and MS/MS conditions are fully described in Martini et al..
Quantification was carried out by building external calibration curves with the available standard compounds.

[1] = SW480, 24 h, substrate 3,5-di-O-Caffeoylquinic acid 50 μmol/L
[2] = SW480, 48 h, substrate 3,5-di-O-Caffeoylquinic acid 50 μmol/L
[3] = SW480, 72 h, substrate 3,5-di-O-Caffeoylquinic acid 50 μmol/L
[4] = SW480, 24 h, substrate 3-O-Caffeoylquinic acid trans 50 μmol/L
[5] = SW480, 24 h, substrate 5-O-Caffeoylquinic acid trans 50 μmol/L
[6] = SW480, 48 h, substrate 5-O-Caffeoylquinic acid trans 50 μmol/L
[7] = SW480, 72 h, substrate 3-O-Caffeoylquinic acid trans 50 μmol/L
[8] = SW480, 72 h, substrate 5-O-Caffeoylquinic acid trans 50 μmol/L
[9] = SW480, 48 h, substrate 3-O-Caffeoylquinic acid trans 50 μmol/L

SMILES | Concentration of newly formed metabolite [1] [nM] | Concentration of newly formed metabolite [2] [nM] | Concentration of newly formed metabolite [3] [nM] | Concentration of newly formed metabolite [4] [nM] | Concentration of newly formed metabolite [5] [nM] | Concentration of newly formed metabolite [6] [nM] | Concentration of newly formed metabolite [7] [nM] | Concentration of newly formed metabolite [8] [nM] | Concentration of newly formed metabolite [9] [nM] | other results
O=C(/C=C/c1ccc(O)c(O)c1)OC1CC(OC(=O)/C=C/c2ccc(O)c(O)c2)(C(=O)O)CC(O)C1O (centres unmarked) [1,3-di-O-Caffeoylquinic acid] | 8970 ± 40 | 8870 ± 50 | 10980 ± 20 | – | – | – | – | – | – | –
O=C(/C=C/c1ccc(O)c(O)c1)OC1C(O)CC(OC(=O)/C=C/c2ccc(O)c(O)c2)(C(=O)O)CC1O (centres unmarked) [1,4-di-O-Caffeoylquinic acid] | 910 ± 30 | 660 ± 30 | 550 ± 10 | – | – | – | – | – | – | –
O=C(/C=C/c1ccc(O)c(O)c1)OC1CC(O)(C(=O)O)CC(O)C1OC(=O)/C=C/c1ccc(O)c(O)c1 (centres unmarked) [3,4-di-O-Caffeoylquinic acid] | 10120 ± 100 | 8040 ± 140 | 9050 ± 150 | – | – | – | – | – | – | –
COc1cc(/C=C/C(=O)OC2CC(O)(C(=O)O)CC(O)C2O)ccc1O (centres unmarked) [3-O-Feruloylquinic acid] | – | – | – | 80 ± 0 | 60 ± 0 | 70 ± 0 | 170 ± 0 | 50 ± 0 | 120 ± 0 | –
O=C(/C=C/c1ccc(O)c(O)c1)O[C@@H]1[C@H](O)C[C@@](O)(C(=O)O)C[C@H]1OC(=O)/C=C/c1ccc(O)c(O)c1 [4,5-di-O-Caffeoylquinic acid] | 3300 ± 50 | 2200 ± 20 | 1710 ± 30 | – | – | – | – | – | – | –
COc1cc(/C=C/C(=O)OC2C(O)CC(O)(C(=O)O)CC2O)ccc1O (centres unmarked) [4-O-Feruloylquinic acid] | – | – | – | 20 ± 0 | 40 ± 0 | 50 ± 0 | 70 ± 0 | 40 ± 0 | 40 ± 0 | –
COc1ccc(-c2oc3cc(O)cc(O)c3c(=O)c2O)cc1O [4′-O-methylquercetin] | – | – | – | – | – | – | – | – | – | Concentration of newly formed metabolite (SW480, 24 h, substrate Quercetin 50 μmol/L): 970 ± 40 nM; Concentration of newly formed metabolite (SW480, 48 h, substrate Quercetin 50 μmol/L): 1650 ± 40 nM; Concentration of newly formed metabolite (SW480, 48 h, substrate Quercetin-3-O-glucoside-4′-O-glucoside 50 μmol/L): 10 ± 0 nM; Concentration of newly formed metabolite (SW480, 48 h, substrate Quercetin-4′-O-glucoside 50 μmol/L): 490 ± 10 nM; Concentration of newly formed metabolite (SW480, 72 h, substrate Quercetin 50 μmol/L): 1830 ± 250 nM; Concentration of newly formed metabolite (SW480, 72 h, substrate Quercetin-3-O-glucoside-4′-O-glucoside 50 μmol/L): 10 ± 0 nM; Concentration of newly formed metabolite (SW480, 72 h, substrate Quercetin-4′-O-glucoside 50 μmol/L): 710 ± 40 nM

More lines, main results first:

Concentration of newly formed metabolite [1] [nM] | Concentration of newly formed metabolite [2] [nM] | Concentration of newly formed metabolite [3] [nM] | Concentration of newly formed metabolite [4] [nM] | Concentration of newly formed metabolite [5] [nM] | Concentration of newly formed metabolite [6] [nM] | Concentration of newly formed metabolite [7] [nM] | Concentration of newly formed metabolite [8] [nM] | Concentration of newly formed metabolite [9] [nM] | SMILES | other results
– | – | – | 4720 ± 40 | 410 ± 50 | 360 ± 40 | 3270 ± 170 | 720 ± 30 | – | O=C(/C=C/c1ccc(O)c(O)c1)O[C@@H]1C[C@](O)(C(=O)O)C[C@@H](O)[C@H]1O [3-O-Caffeoylquinic acid cis, 3-O-Caffeoylquinic acid] | –
70 ± 10 | 120 ± 10 | 250 ± 10 | 6890 ± 60 | 12690 ± 120 | 14800 ± 90 | 12020 ± 240 | 11930 ± 30 | 8070 ± 240 | O=C(/C=C/c1ccc(O)c(O)c1)OC1[C@H](O)CC(O)(C(=O)O)C[C@H]1O (stereo partly drawn) [4-O-Caffeoylquinic acid trans, 4-O-Caffeoylquinic acid] | –
– | – | – | – | – | 970 ± 50 | – | 1420 ± 10 | – | O=C(/C=C/c1ccc(O)c(O)c1)O[C@@H]1C[C@](O)(C(=O)O)C[C@@H](O)[C@H]1O [5-O-Caffeoylquinic acid cis, 5-O-Caffeoylquinic acid] | –
